Data: patent US20180015017A1, “USE OF GLUCOSYLGLYCEROL” (Bitop AG, priority 2008, published 2018)

What was measured:
SOD-1 = experiment: Expression of SOD-1 mRNA in keratinocytes (33P-labeled cDNA chip, phosphor imaging); assay type: cell-based, human; details: for Upregulation of the cytosolic SOD-1: relative amount of hybridized targets (radioactivity, phosphor imaging): NHEK keratinocytes, 0.5-% (w/w) aqueous solution; for increase of the expression of SOD-1: keratinocytes, 0.5-% glucosylglycerol solution
Protocol: (§1) In these tests appropriate cell cultures were treated with a glucosylglycerol solution and the transcribed mRNA quantified. For this purpose the mRNA was first extracted to produce a ^33P labeled target with the help of a reverse transcriptase. Following this, these targets were applied to a cDNA chip and the radioactivity measured by means of the phosphor imaging method. The cDNA chip contained an array of the cDNAs of various proteins.
(§2) The investigations were carried out with epidermal keratinocytes (NHEK, normal human epidermal keratinocytes) and dermal fibroblasts (NHDF, normal human dermal fibroblasts). In the case of the keratinocytes a 0.5-% (w/w) and in the case of the fibroblasts a 1-% (w/w) aqueous glucosylglycerol solution was used for the treatment.
Keratinocytes: Keratinocyte-SFM (Invitrogen 17005-034) blended with epidermal growth factor (EGF) 0.25 ng/ml, pituitary extract (PE) 25 μg/ml (Invitrogen 3700015), Gentamycin […] (Sigma G1397).
(§3) Culturing took place for a period of 24 and 96 hours. At the end of the incubation period the cells were washed with PBS solution (Invitrogen 14190094).
(§4) The extraction of mRNA of each culture was achieved using TriReagent as per a standard protocol. The relevant cDNAs with ^33P-labeled targets was produced by reverse transcription of mRNA using [α^33P]-dATP and oligodT.
(§5) The labeled cDNA targets were hybridized to the specific cDNA probes covalently fixed to minichips. After thorough washing the relative amount of the hybridized targets was determined by means of the phosphor imaging method. This analysis was performed by measuring the radioactivity by means of a “Cyclone” Phosphor Imager (Packard Instruments; 72 hours exposure time) and using the ImageQuant TL-Software (Amersham Biosiences).

SOD-2 = experiment: Expression of SOD-2 mRNA in fibroblasts (33P-labeled cDNA chip, phosphor imaging); assay type: cell-based, human; details: for Upregulation of SOD-2: relative amount of hybridized targets (radioactivity, phosphor imaging): NHDF fibroblasts, 1-% (w/w) aqueous solution
Protocol: as §1, §2
Fibroblasts: DMEM (Invitrogen 21969035), blended with L-glutamine 2 mM (Invitrogen 25030024), Penicillin 50 Ul/ml/Streptomycin 50 μg/ml (Invitrogen 15070063), fetal calf serum 10% (FCS, Invitrogen 10270098).
as §3, §4, §5

OCC(CO)O[C@H]1O[C@H](CO)[C@@H](O)[C@H](O)[C@H]1O [glucosylglycerol, 2-O-α-D-glucosylglycerol]
Upregulation of the cytosolic SOD-1: relative amount of hybridized targets (radioactivity, phosphor imaging) (SOD-1; 24 h, control 18.2): 85
Upregulation of the cytosolic SOD-1: relative amount of hybridized targets (radioactivity, phosphor imaging) (SOD-1; 96 h, control 9.3): 182
increase of the expression of SOD-1 (SOD-1; within 24 hours): 4.7 times
increase of the expression of SOD-1 (SOD-1; within 96 hours): 19.6 times
Upregulation of SOD-2: relative amount of hybridized targets (radioactivity, phosphor imaging) (SOD-2; 24 h, control 16.5): 419
Upregulation of SOD-2: relative amount of hybridized targets (radioactivity, phosphor imaging) (SOD-2; 96 h, control 9.1): 313
higher expression of SOD-2 (SOD-2; fibroblasts, 1-% glucosylglycerol solution, within 24 hours): 25.4 times
increase of expression of SOD-2 (SOD-2; fibroblasts, 1-% glucosylglycerol solution, within 96 hours): 34.4 fold
